Molecules are shown by their SMILES.

Experimental findings from the METLIN SMRT retention time set (Domingo-Almenara et al. 2019) are described below.

The nature of the series: gradient 5% acetonitrile 3 min, to 50% in 2 min, to 85% in 15 min, held 3 min, 100 µL/min. As to conditions: column: Zorbax Extend-C18 2.1 x 50 mm; eluents: water / acetonitrile, 0.1% formic acid. An outline of the steps: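 Pure standards were analyzed in mixtures of ~100 molecules using HPLC coupled to a quadrupole time-of-flight mass spectrometer, in both positive and negative ionization mode. Separation used a Zorbax Extend-C18 column (2.1 × 50 mm, 1.8 μm) at 100 μL/min, with water and acetonitrile each containing 0.1% formic acid. Dead and dwell volumes were 40 μL and 900 μL, and data were collected over 3 months. Retention time was read from computationally picked adduct peaks, each inspected manually.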
With `Cc1[nH]c2ccccc2c1C(=O)C(=O)NCCn1ccc2ccccc21`, the RP-LC retention time turned out to be 844 s. The compound `C=CCN1C(=O)COc2ccc(-c3nc(NC(=O)c4ccco4)sc3C)cc21` registered an RP-LC retention time of 903 s.

The compound `CC(NC(=O)CCc1ccccc1)C(=O)Nc1nc2ccccc2[nH]1` (stereo not given) had an RP-LC retention time of 654 s. `Cc1nn(-c2nc(-c3ccccc3)cs2)c(C)c1CC(=O)Nc1ccc(F)cc1` registered an RP-LC retention time of 1130 s. With `CCn1cc(-c2ccc(Cl)cc2)cc1C(=O)NCCN(C)C` the figure was 702 s; with `O=c1c2nc(-c3cccc(Cl)c3)cn2ccn1-c1ccc(F)cc1`, 864 s; with `O=C(NC1CCCC1)N1CCC(c2noc(-c3cccnc3)n2)C1` (stereo not given), 701 s. In the case of `CCCN1C(=O)COc2cc(-c3noc(C(=O)NC4CCCC4)n3)ccc21`, the RP-LC retention time is 977 s. Turning to `O=C(Cc1csc(NC(=O)C2CCCC2)n1)Nc1nc(-c2cccnc2)cs1`, the RP-LC retention time was found to be 600 s. The value for `Cc1cc(-c2ccc(S(=O)(=O)N3CCC(C(=O)NC4CCCCCC4)CC3)o2)n[nH]1` was 852 s; that for `CNC(=O)c1ccccc1C(=O)NCCc1nc(-c2cnccn2)no1` was 555 s; that for `O=C(NCc1ccccc1F)C1CCc2nc(N3CCOCC3)ncc2C1` (stereo not given) was 731 s. With `CS(=O)(=O)N1CCC(C(=O)Nc2ccc(Br)cc2F)Oc2ccccc21` (stereo not given) the figure was 990 s; with `Cc1cccc(Sc2nccnc2N2CCC(C(=O)NC3CCCC3)CC2)c1`, 1040 s.

For `CCN1CCN(C(=O)c2nc(-c3ccnc(N4CCCCC4)c3)no2)CC1`, the RP-LC retention time stood at 568 s. `CCCNS(=O)(=O)c1cc(-c2[nH]ncc2C(=O)N2CCOCC2)oc1C` had an RP-LC retention time of 662 s. The value for `O=C(Cn1c2c(c3ccccc31)CCC2)NCCn1ncccc1=O` was 710 s; that for `CCn1c(C)c(C(=O)C(C)N(Cc2ccc(F)cc2)C(=O)C2CC2)c(C)c1C(=O)OC` (stereo not given) was 1030 s. `CCOC(=O)c1nc(N(CC)c2cc(C)ccc2C)c2ccccc2n1` registered an RP-LC retention time of 1130 s.

In the case of `COc1cccc(NC(=O)CN2CCc3c(c(=O)c4cc(C)ccc4n3C)C2)c1`, the RP-LC retention time was found to be 609 s. On to `O=C(NCCCNC(=O)NC1CCCCC1)NC1CCCCC1`, for which the RP-LC retention time stood at 673 s. The value for `Cc1[nH]c2ccccc2c1CCNCc1ccc(/C=C/C(=O)NO)cc1` was 659 s; that for `Cn1nccc1C(=O)N1CCC(NS(=O)(=O)c2ccc(Cl)cc2)CC1` was 704 s; that for `NC(=O)Cn1cnc2c(-c3ccc(F)cc3)nsc2c1=O` was 713 s. The compound `CCCCNc1cc(Cl)nc(N)n1` came in with an RP-LC retention time of 690 s. `Cc1ccc(NC(=O)Nc2ccccc2)c(=O)n1CC(=O)NCC1CCCO1` (stereo not given) returned an RP-LC retention time of 697 s. For the compound `O=P1(N(CCCl)CCCl)NCCCO1` (stereo not given), the RP-LC retention time was found to be 724 s.

With `CCC1CCCCN1C(=O)c1cnc2nc(C)ccc2c1Nc1cc(OC)ccc1OC` (stereo not given), the RP-LC retention time was 689 s. The value for `O=c1c2nc(-c3cccc(Cl)c3)cn2ccn1-c1cccc(F)c1` was 871 s; that for `COc1ccc(F)cc1S(=O)(=O)Nc1ccc(CC(=O)NCC(F)(F)F)cc1` was 869 s; that for `Cc1cc(=O)n(CC(=O)NC2CCCC2)c(N2CCOCC2)n1` was 599 s.

Turning to `COCCCNc1c(-c2cccc(F)c2)nc2sc(C(=O)N(C)C)c(C)n12`, the RP-LC retention time is 776 s.

Take `CCOc1ccc2nc(NS(=O)(=O)c3ccc4c5c(cccc35)C(=O)N4)sc2c1`: the RP-LC retention time amounted to 703 s.

For the compound `CCOc1ccc(C2=NC3(CCN(C(C)C)CC3)NC(c3cc(Br)ccc3O)C2)cc1` (stereo not given), the RP-LC retention time was 654 s.

For the compound `Cc1cnc(C(=O)N2CCC3(CCC3O)CC2)cn1` (stereo not given), the RP-LC retention time came to 605 s. As to `COc1ccc(Cc2nc(Cn3ccnc3)no2)cc1OC`, the RP-LC retention time was 592 s.

`N#C/C(=C\c1ccc[nH]1)C(=O)c1ccccc1` showed an RP-LC retention time of 892 s.

As for `CCCNC(=O)C1CCCN(c2ccc(SCC(=O)Nc3c(C)cccc3CC)nn2)C1` (stereo not given), the RP-LC retention time was 650 s. Take `CCOC(=O)c1c(S(=O)(=O)N2CCC(C(=O)Nc3cccc(OC)c3)CC2)c(C)n(CC)c1C`: the RP-LC retention time was found to be 891 s. As for `OCc1nc2ccccc2n1C/C=C/c1ccccc1`, the RP-LC retention time stood at 579 s. `CC1CCCN(C(=O)c2cn(-c3ccc(-c4nc(C5CC5)no4)cn3)cn2)C1` (stereo not given) came in with an RP-LC retention time of 840 s.

`CC(Oc1ccccc1)C(=O)N1CCN(c2nc(CN3CCCCC3)cs2)CC1` (stereo not given) gave an RP-LC retention time of 650 s. In turn, `COc1cc(CN2C[C@@H]3C(=O)N(Cc4ccc5c(c4)OCO5)C(=O)[C@@H]3C2)cc(OC)c1` yielded an RP-LC retention time of 741 s. As to `O=C(NC1(c2nc(-c3ccncc3)no2)CCCCC1)c1ccc(C(F)(F)F)cc1`, the RP-LC retention time was 1030 s.

`O=C(CN1C(=O)c2ccccc2C1=O)NCCS(=O)(=O)N1CCc2ccccc2C1` gave an RP-LC retention time of 744 s. As to `COc1ccc(OC)c(NC(=O)C2CC(=O)N(CCc3c[nH]c4ccc(F)cc34)C2)c1` (stereo not given), the RP-LC retention time turned out to be 794 s. For the compound `Cc1ccn(CC(=O)N2CC(n3cc(COc4ccc(F)cc4)nn3)C2)n1`, the RP-LC retention time is 716 s. The value for `Cc1cccc(NS(=O)(=O)c2ccc3c(c2)CCCC(=O)N3)c1C` was 813 s; that for `CC(=O)C1=C(C)N(Cc2ccccc2)C(=O)C1(NC(=O)C1CCCCC1)C(F)(F)F` (stereo not given) was 1020 s.

The compound `CCc1nc(N)n(CC(=O)Nc2cccc(C)c2C)c(=O)c1C` displayed an RP-LC retention time of 638 s. In turn, `CC(=O)N1c2ccc(S(=O)(=O)N3CCC(C(=O)NC(C)c4ccccc4)CC3)cc2CC1C` (stereo not given) came in with an RP-LC retention time of 733 s.

The compound `CCn1cnc2ccc(-c3noc(COc4ccc(F)cc4)n3)cc21` registered an RP-LC retention time of 754 s. As for `CCOC(=O)c1cccc(NS(=O)(=O)c2cc(-c3c(C)noc3NC(C)=O)ccc2OC)c1`, the RP-LC retention time stood at 781 s. Regarding `CCC(c1cccs1)N1C(=O)[C@H]2CN(S(=O)(=O)c3ccc(F)cc3F)C[C@H]2C1=O` (stereo not given in full), the RP-LC retention time worked out at 1000 s.

In the case of `O=C(NCc1csc(-c2cccs2)n1)C1CCN(C(=O)COc2ccccc2)CC1`, the RP-LC retention time turned out to be 770 s.

`COc1cc(NS(=O)(=O)c2ccc(Nc3nc(-c4ccc(C)c(C)c4)cs3)cc2)nc(OC)n1` returned an RP-LC retention time of 1190 s. `CCOC(=O)c1nc(NC2CCCCCC2)c2ccccc2n1` came in with an RP-LC retention time of 827 s. Regarding `CC(=O)Nc1cc(C(=O)NCc2ccccc2C)c2ccc(C)nc2c1`, the RP-LC retention time was determined as 610 s. Turning to `O=C(NCc1ccco1)C1CCN(C(=O)c2ncn3c2COC(c2ccc(F)cc2)C3)CC1` (stereo not given), the RP-LC retention time was 711 s. The compound `Cc1cccc(N2C(=O)N(Cc3cccc(F)c3)S(=O)(=O)c3cccnc32)c1` yielded an RP-LC retention time of 1090 s. `Cc1ccccc1CNC(=O)Cc1csc2nc(-c3ccccc3)cn12` displayed an RP-LC retention time of 792 s. The value for `Brc1cccc(-c2nnc(Cc3nc(-c4ccncc4)no3)o2)c1` was 854 s; that for `Cc1ccc(Nc2cc(C)n3c(=O)n(Cc4cc(=O)n5ccccc5n4)nc3n2)cc1F` was 942 s; that for `O=C(c1ccco1)N1CC(Oc2cccc(-c3nc(-c4ccccc4)no3)c2)C1` was 1120 s.

In the case of `CC1Oc2ccc(-c3csc(NC(=O)CCc4ccccc4)n3)cc2N(C)C1=O` (stereo not given), the RP-LC retention time was found to be 1010 s. Take `O=C(c1cn[nH]c1)N1CCC(c2nc(CCOCC3CCCC3)no2)C1` (stereo not given): the RP-LC retention time was 717 s.

In turn, `CCOC(=O)c1ccc2[nH]c(-c3ccc(S(=O)(=O)F)cc3)cc(=O)c2c1` displayed an RP-LC retention time of 858 s.

`CCc1nc2onc(C)c2c(=O)n1CC(=O)NC1CCCc2ccccc21` (stereo not given) displayed an RP-LC retention time of 892 s. In the case of `CCOc1ccccc1NC(=O)Cn1ccc2ccc(-c3nnc(CC)o3)cc21`, the RP-LC retention time was 928 s. In turn, `CCN1C(=O)c2cc(C(=O)NCc3ccc(C)cc3)nn2CC1(C)C(=O)NC1CCCC1` (stereo not given) gave an RP-LC retention time of 766 s.

In turn, `COc1ccc(NC(=O)Cn2c(=O)nc(N3CCC(C)CC3)c3ccccc32)cc1OC` displayed an RP-LC retention time of 768 s.

For `CCc1noc(NC(C)=O)c1-c1ccc(C)c(S(=O)(=O)N2CCC(C)CC2)c1`, the RP-LC retention time was 929 s. With `CC(C)Cn1c(=O)c2ccccc2n(Cc2nc(-c3cccc(C(F)(F)F)c3)no2)c1=O` the figure was 1030 s; with `COc1ccc(NC(=O)N2CCC3(C2)C(=O)N(C)c2ccccc23)cc1F` (stereo not given), 785 s. The value for `COc1ccc(OC)c(CNS(=O)(=O)c2cc(-c3nc(C)c(C)s3)sc2C)c1` was 1030 s. On to `COc1cc(OC)cc(N2C=C(C#N)S(=O)(=O)c3ccccc32)c1`, for which the RP-LC retention time was determined as 910 s.

For `O=C1NC2(CCN(C(=O)c3ccc(F)c(F)c3)CC2)Nc2c(Cl)cccc21`, the RP-LC retention time was determined as 777 s.

In the case of `Cc1cccc(-c2nnc(Cc3nc(-c4ccc5c(c4)OCO5)no3)o2)c1`, the RP-LC retention time was determined as 1010 s. The compound `NC(=O)COC1CCC12CCN(C(=O)C1CCCC1)CC2` (stereo not given) came in with an RP-LC retention time of 693 s. With `Cn1c(=O)c(N2CCCC(C(=O)NCc3ccco3)C2)nc2cccnc21` (stereo not given) the figure was 788 s.
